Data on 7 substances can be found in patent US11085056B2, “Transfection complexes and methods of using the same” (MOLECULAR TRANSFER, INC., priority 2015, dated 2021).

Assay [1] relates to HuVec Cells. In words: Transfection of HuVec cells with DOTMA/DOPE/peptide and eGFP plasmid, fluorescent plate reader. The note with it: DOTMA/DOPE 1:1 plus peptide with RRRRRRRRRRRR (SEQ ID NO: 109) at n terminus; EF1Alpha eGFP plasmid; 0.01 mL complex; 42 hours. Type of assay: cell-based. The gist of the method: (§1)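 Cells at 60-70% confluence got DOTMA/DOPE (1:1) mixed with peptides bearing an N-terminal R12 DNA-binding tag, complexed 10 min with EF1α-eGFP plasmid (5 μg/mL in OptiMEM); 0.01 or 0.02 mL complex per well. After 42 h at 37 °C, GFP read by fluorescence plate reader and % transfected cells by microscopy, relative to lipid without peptide.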

The subject of assay [2] is Jurkat Cells. In words: Transfection of Jurkat cells with DOTMA/DOPE/peptide and eGFP plasmid, fluorescent plate reader. The assay is classed as cell-based. The settings on record: DOTMA/DOPE 1:1 plus peptide with RRRRRRRRRRRR (SEQ ID NO: 109) at n terminus; EF1Alpha eGFP plasmid; 0.02 mL complex; 42 hours. The gist of the method: as §1
Assay [3] deals with HeLa Cells. Kind of assay: Transfection of HeLa cells with DOTMA/SEQ ID NO: 72/peptide compared with Lipofectamine 2000. The note with it: fusogenic peptide 0.1 mg/mL. Type of assay: cell-based. The gist of the method: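 HeLa cells at 60–70% confluence received 0.01 mL of complexes of EF1Alpha eGFP plasmid (5 μg/mL in OptiMEM) with DOTMA/DOPE (1:1) plus R12-linked peptide, with fusogenic peptide at 0.1 mg/mL final. GFP read by fluorescence plate reader and microscopy (% cells transfected) after 42 h at 37 °C.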

Assay [4] concerns C2C12 Cells. Kind of assay: Transfection of C2C12 cells with DOTMA/DOPE/peptide and eGFP plasmid, fluorescent plate reader. The settings on record: DOTMA/DOPE 1:1 plus peptide with RRRRRRRRRRRR (SEQ ID NO: 109) at n terminus; EF1Alpha eGFP plasmid; 0.02 mL complex; 42 hours. Type of assay: cell-based, mouse. The gist of the method: as §1
For assay [5], the system named is Human Fibroblast Cells. Kind of assay: Transfection of human fibroblast cells with DOTMA/DOPE/peptide and eGFP plasmid, fluorescent plate reader. The note with it: DOTMA/DOPE 1:1 plus peptide with RRRRRRRRRRRR (SEQ ID NO: 109) at n terminus; EF1Alpha eGFP plasmid; 0.01 mL complex; 42 hours. The assay is classed as cell-based. The gist of the method:
as §1

Assay [6] deals with NL-1 iPS Cells. In words: Transfection of NL-1 iPS cells with DOTMA/DOPE/peptide and eGFP plasmid, fluorescent plate reader. The assay is classed as cell-based. The settings on record: DOTMA/DOPE 1:1 plus peptide with RRRRRRRRRRRR (SEQ ID NO: 109) at n terminus; EF1Alpha eGFP plasmid; 42 hours.
Assay [7] has as its system HeLa Cells. Kind of assay: Transfection of HeLa cells with DOTMA/DOPE/peptide and eGFP plasmid, fluorescent plate reader. Type of assay: cell-based. The settings on record: DOTMA/DOPE 1:1 plus peptide with RRRRRRRRRRRR (SEQ ID NO: 109) at n terminus; EF1Alpha eGFP plasmid; 0.01 mL complex; 42 hours. The gist of the method:
as §1

The test system of assay [8] is some examined cell types. Kind of assay: Transfection expression and % cells transfected over the no peptide control. The assay is classed as cell-based. The note with it: on some examined cell types. The gist of the method:
as §1

Where [9] appears, read: 0.1 μL of DOTMA/SEQ ID NO: 72/Peptide in well of a 96 well plate.
Setting [10] is: 0.2 μL of DOTMA/SEQ ID NO: 72/Peptide in well of a 96 well plate.
The mark [11] stands for this setting: 0.3 μL of DOTMA/SEQ ID NO: 72/Peptide in well of a 96 well plate.
Setting [12] is: 0.4 μL of DOTMA/SEQ ID NO: 72/Peptide in well of a 96 well plate.

With “218 (SPPRRARVT; Peptidic transfection agent) [compound 218]”, the “RF (Relative Fluorescence) of Transfection of HuVec Cells” value in assay [1] turned out to be 14827. Moreover, in assay [2], the “RF (Relative Fluorescence) of Transfection of Jurkat Cells” value came out at 21451. Moreover, the “RF (Relative Fluorescence), DOTMA/SEQ ID NO: 72/Peptide, HeLa Cells” value is recorded as 12686 in assay [3] (setting [9]), 13103 in assay [3] (setting [10]), 10151 in assay [3] (setting [11]) and 10081 in assay [3] (setting [12]). Further, in assay [4], the “RF (Relative Fluorescence) of Transfection of C2C12 Cells” value turned out to be 3706. In assay [5], the “RF (Relative Fluorescence) of Transfection of Human Fibroblast Cells” value is recorded as 11230. Besides, the “RF (Relative Fluorescence) of Transfection of NL-1 iPS Cells” value in assay [6] is given as 17049. Further, in assay [7], the “RF (Relative Fluorescence) of Transfection of HeLa Cells” value is listed as 11179. Also, in assay [8], the “transfection expression and the % cells transfected over the no peptide control” value is “increased”.

As for “452 (CNYYSNSYSFWLASLNPER; Peptidic transfection agent) [compound 452]”, the “RF (Relative Fluorescence) of Transfection of HuVec Cells” value in assay [1] stood at 1841. For the same substance, the “RF (Relative Fluorescence) of Transfection of Jurkat Cells” value in assay [2] came out at 2554. In addition, the “RF (Relative Fluorescence), DOTMA/SEQ ID NO: 72/Peptide, HeLa Cells” value in assay [3] (setting [9]) is listed as 6276; in assay [3] (setting [10]), 12671; in assay [3] (setting [11]) it was 12047; in assay [3] (setting [12]), 10918. Besides, in assay [4], the “RF (Relative Fluorescence) of Transfection of C2C12 Cells” value is listed as 21798. Also, the “RF (Relative Fluorescence) of Transfection of Human Fibroblast Cells” value in assay [5] stood at 2779. For the same substance, in assay [6], the “RF (Relative Fluorescence) of Transfection of NL-1 iPS Cells” value was 10349. For the same substance, the “RF (Relative Fluorescence) of Transfection of HeLa Cells” value in assay [7] is given as 13888. The “transfection expression and the % cells transfected over the no peptide control” value in assay [8] is “increased”.

For “347 (DLGTAGSCLRKFSTM; Peptidic transfection agent) [compound 347]”, the “RF (Relative Fluorescence) of Transfection of HuVec Cells” value in assay [1] was 20728. Besides, in assay [2], the “RF (Relative Fluorescence) of Transfection of Jurkat Cells” value is on record as 17720. For the same substance, the “RF (Relative Fluorescence), DOTMA/SEQ ID NO: 72/Peptide, HeLa Cells” value in assay [3] (setting [9]) is listed as 23188; in assay [3] (setting [10]) it was 21493; in assay [3] (setting [11]) it was 16814; in assay [3] (setting [12]) it was 14140. Further, the “RF (Relative Fluorescence) of Transfection of C2C12 Cells” value in assay [4] is given as 4457. The “RF (Relative Fluorescence) of Transfection of Human Fibroblast Cells” value in assay [5] turned out to be 9255. For the same substance, the “RF (Relative Fluorescence) of Transfection of NL-1 iPS Cells” value in assay [6] was found to be 21865. Also, the “RF (Relative Fluorescence) of Transfection of HeLa Cells” value in assay [7] was determined as 22527. Besides, the “transfection expression and the % cells transfected over the no peptide control” value in assay [8] was “increased”.

With “326 (RLVSYSGVLFFLK; Peptidic transfection agent) [compound 326]”, the “RF (Relative Fluorescence) of Transfection of HuVec Cells” value in assay [1] came to 4932. The “RF (Relative Fluorescence) of Transfection of Jurkat Cells” value in assay [2] was 3018. Further, the “RF (Relative Fluorescence), DOTMA/SEQ ID NO: 72/Peptide, HeLa Cells” value in assay [3] (setting [9]) is given as 6887; in assay [3] (setting [10]) it was 9487; in assay [3] (setting [11]) it was 10330; in assay [3] (setting [12]), 9227. The “RF (Relative Fluorescence) of Transfection of C2C12 Cells” value in assay [4] came out at 8553. The “RF (Relative Fluorescence) of Transfection of Human Fibroblast Cells” value in assay [5] turned out to be 3070. Moreover, the “RF (Relative Fluorescence) of Transfection of NL-1 iPS Cells” value in assay [6] was determined as 9239. Besides, the “RF (Relative Fluorescence) of Transfection of HeLa Cells” value in assay [7] came out at 18946. Besides, the “transfection expression and the % cells transfected over the no peptide control” value in assay [8] is reported as “increased”.

Regarding “450 (TAGSCLRKFSCL; Peptidic transfection agent) [compound 450]”, in assay [1], the “RF (Relative Fluorescence) of Transfection of HuVec Cells” value turned out to be 20911. The “RF (Relative Fluorescence) of Transfection of Jurkat Cells” value in assay [2] is recorded as 8779. In addition, the “RF (Relative Fluorescence), DOTMA/SEQ ID NO: 72/Peptide, HeLa Cells” value was 11962 in assay [3] (setting [9]), 17346 in assay [3] (setting [10]), 12553 in assay [3] (setting [11]) and 10241 in assay [3] (setting [12]). The “RF (Relative Fluorescence) of Transfection of C2C12 Cells” value in assay [4] came to 3795. Further, the “RF (Relative Fluorescence) of Transfection of Human Fibroblast Cells” value in assay [5] stood at 6996. For the same substance, the “RF (Relative Fluorescence) of Transfection of NL-1 iPS Cells” value in assay [6] is recorded as 29856. For the same substance, the “RF (Relative Fluorescence) of Transfection of HeLa Cells” value in assay [7] is reported as 21045. In addition, the “transfection expression and the % cells transfected over the no peptide control” value in assay [8] is on record as “increased”.

For the substance “377 (TAGSCLRRFSTM; Peptidic transfection agent) [compound 377]”, the “RF (Relative Fluorescence) of Transfection of HuVec Cells” value in assay [1] was 9326. Moreover, in assay [2], the “RF (Relative Fluorescence) of Transfection of Jurkat Cells” value is 6785. For the same substance, the “RF (Relative Fluorescence), DOTMA/SEQ ID NO: 72/Peptide, HeLa Cells” value in assay [3] (setting [9]) was found to be 39115; in assay [3] (setting [10]), 40072; in assay [3] (setting [11]) it was 32914; in assay [3] (setting [12]) it was 22457. Also, the “RF (Relative Fluorescence) of Transfection of C2C12 Cells” value in assay [4] was 1710. The “RF (Relative Fluorescence) of Transfection of Human Fibroblast Cells” value in assay [5] is reported as 6638. Also, in assay [6], the “RF (Relative Fluorescence) of Transfection of NL-1 iPS Cells” value was determined as 5474. The “RF (Relative Fluorescence) of Transfection of HeLa Cells” value in assay [7] is 15091. In addition, the “transfection expression and the % cells transfected over the no peptide control” value in assay [8] was “increased”.

Regarding “357 (SETTVKYIFRLHE; Peptidic transfection agent) [compound 357]”, in assay [1], the “RF (Relative Fluorescence) of Transfection of HuVec Cells” value is 6009. In assay [2], the “RF (Relative Fluorescence) of Transfection of Jurkat Cells” value is listed as 2256. Moreover, the “RF (Relative Fluorescence), DOTMA/SEQ ID NO: 72/Peptide, HeLa Cells” value worked out at 7718 in assay [3] (setting [9]), 11798 in assay [3] (setting [10]), 9229 in assay [3] (setting [11]) and 9107 in assay [3] (setting [12]). Moreover, the “RF (Relative Fluorescence) of Transfection of C2C12 Cells” value in assay [4] was found to be 4506. In addition, the “RF (Relative Fluorescence) of Transfection of Human Fibroblast Cells” value in assay [5] is 7167. For the same substance, the “RF (Relative Fluorescence) of Transfection of NL-1 iPS Cells” value in assay [6] was determined as 15624. Besides, the “RF (Relative Fluorescence) of Transfection of HeLa Cells” value in assay [7] was 22679. In assay [8], the “transfection expression and the % cells transfected over the no peptide control” value is listed as “increased”.
